The supplement of paper PMC10307832

Experiments:
Test in all cases: relative viability (nuclei count vs DMSO), 5 days (fraction); higher = more cells survive
NVP-TAE684 + Pemetrexed = compound: COc1cc(N2CCC(N3CCN(C)CC3)CC2)ccc1Nc1ncc(Cl)c(Nc2ccccc2S(=O)(=O)C(C)C)n1 [NVP-TAE684] + Nc1nc2[nH]cc(CCc3ccc(C(=O)N[C@@H](CCC(=O)O)C(=O)O)cc3)c2c(=O)[nH]1 [Pemetrexed] (partner 0.2 µM)
Outline: (§1)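 For relative viability, nuclei counts in treated wells were divided by those in vehicle wells. Lung cancer cell lines had been pin-tool dosed in 1536-well plates the day after seeding and cultured for 5 days, then fixed and stained in one step (final 0.05% Triton X-100, 1% formaldehyde, 1 ug/ml Hoechst) and imaged at 4×. Doses were one drug alone or a fixed anchor-drug dose plus five library-drug doses (not always all listed) in √10 steps, and values are duplicate-plate medians.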

[1] = compound: C1=CC=C2C(=C1)N=C(S2)C(C#N)C3=NC(=NC=C3)NCCC4=CN=CC=C4 + O=C(c1cc(Cc2n[nH]c(=O)c3ccccc23)ccc1F)N1CCN(C(=O)C2CC2)CC1 [Olaparib] (partner 8 µM)
Outline: as §1

NVP-TAE684 + Foretinib = compound: COc1cc(N2CCC(N3CCN(C)CC3)CC2)ccc1Nc1ncc(Cl)c(Nc2ccccc2S(=O)(=O)C(C)C)n1 [NVP-TAE684] + COc1cc2c(Oc3ccc(NC(=O)C4(C(=O)Nc5ccc(F)cc5)CC4)cc3F)ccnc2cc1OCCCN1CCOCC1 [Foretinib] (partner 0.25 µM)
Outline: as §1

NVP-TAE684 + Luminespib = compound: COc1cc(N2CCC(N3CCN(C)CC3)CC2)ccc1Nc1ncc(Cl)c(Nc2ccccc2S(=O)(=O)C(C)C)n1 [NVP-TAE684] + CCNC(=O)c1noc(-c2cc(C(C)C)c(O)cc2O)c1-c1ccc(CN2CCOCC2)cc1 [Luminespib] (partner 0.01 µM)
Outline: as §1

CUDC-101 + Pemetrexed = compound: C#Cc1cccc(Nc2ncnc3cc(OC)c(OCCCCCCC(=O)NO)cc23)c1 [CUDC-101] + Nc1nc2[nH]cc(CCc3ccc(C(=O)N[C@@H](CCC(=O)O)C(=O)O)cc3)c2c(=O)[nH]1 [Pemetrexed] (partner 0.2 µM)
Outline: as §1

Cell Line | relative viability (NVP-TAE684 + Pemetrexed; first compound 0.2 µM) | relative viability (NVP-TAE684 + Pemetrexed; first compound 0.6325 µM) | relative viability (NVP-TAE684 + Pemetrexed; first compound 2 µM) | relative viability ([1]; first compound 0.005 µM) | relative viability ([1]; first compound 0.01581 µM) | relative viability ([1]; first compound 0.05 µM) | relative viability ([1]; first compound 0.1581 µM) | relative viability ([1]; first compound 0.5 µM) | relative viability (NVP-TAE684 + Foretinib; first compound 0.2 µM) | relative viability (NVP-TAE684 + Foretinib; first compound 0.6325 µM) | relative viability (NVP-TAE684 + Foretinib; first compound 2 µM) | relative viability (NVP-TAE684 + Luminespib; first compound 0.2 µM) | relative viability (NVP-TAE684 + Luminespib; first compound 0.6325 µM) | relative viability (NVP-TAE684 + Luminespib; first compound 2 µM) | relative viability (CUDC-101 + Pemetrexed; first compound 0.01 µM) | relative viability (CUDC-101 + Pemetrexed; first compound 0.03162 µM) | relative viability (CUDC-101 + Pemetrexed; first compound 0.1 µM) | relative viability (CUDC-101 + Pemetrexed; first compound 0.3162 µM) | relative viability (CUDC-101 + Pemetrexed; first compound 1 µM)
EKVX | 0.376 | 0.337 | 0.254 | 1 | 0.865 | 0.797 | 0.689 | 0.673 | 0.51 | 0.806 | 0.537 | 0.877 | 0.913 | 0.754 | 0.395 | 0.435 | 0.442 | 0.373 | 0.35
NCI-H322M | 0.635 | 0.593 | 0.479 | 0.755 | 0.746 | 0.779 | 0.78 | 0.677 | 0.828 | 0.827 | 0.565 | 0.779 | 0.751 | 0.432 | 0.636 | 0.604 | 0.585 | 0.569 | 0.453
SK-MES-1 | 0.999 | 0.855 | 0.686 | 0.821 | 0.76 | 0.617 | 0.798 | 0.569 | 0.597 | 1.12 | 0.774 | 0.842 | 0.76 | 0.321 | 0.896 | 0.946 | 0.922 | 0.972 | 0.724
NCI-H1355 | 1.01 | 0.984 | 0.793 | 0.704 | 0.761 | 0.764 | 0.825 | 0.769 | 0.9 | 0.989 | 0.428 | 0.594 | 0.687 | 0.471 | 0.995 | 1.07 | 0.974 | 1.13 | 1.02
ChaGo-K-1 | 0.273 | 0.246 | 0.264 | 0.372 | 0.425 | 0.408 | 0.421 | 0.402 | 0.943 | 0.818 | 0.538 | 0.661 | 0.67 | 0.44 | 0.259 | 0.246 | 0.259 | 0.256 | 0.256
NCI-H2126 | 0.734 | 0.67 | 0.554 | 0.771 | 0.945 | 0.887 | 0.978 | 0.75 | 1.13 | 1.22 | 0.84 | 0.94 | 0.845 | 0.398 | 0.635 | 0.659 | 0.761 | 0.687 | 0.529
NCI-H520 | 0.694 | 0.823 | 0.326 | 0.302 | 0.307 | 0.309 | 0.321 | 0.29 | 0.712 | 0.979 | 0.51 | 0.189 | 0.219 | 0.219 | 0.711 | 0.755 | 0.774 | 0.608 | 0.342
NCI-H1755 | 0.394 | 0.583 | 0.384 | 0.914 | 0.994 | 0.881 | 1.06 | 0.943 | 1.03 | 0.897 | 0.761 | 0.304 | 0.272 | 0.445 | 0.425 | 0.42 | 0.441 | 0.407 | 0.384
NCI-H358 | 0.166 | 0.151 | 0.13 | 0.413 | 0.658 | 0.653 | 0.698 | 0.419 | 0.736 | 0.672 | 0.099 | 0.25 | 0.337 | 0.115 | 0.181 | 0.187 | 0.166 | 0.161 | 0.154
NCI-H1650 | 0.382 | 0.35 | 0.353 | 0.718 | 0.719 | 0.708 | 0.882 | 0.507 | 1.06 | 1.14 | 0.556 | 0.184 | 0.206 | 0.182 | 0.381 | 0.297 | 0.389 | 0.397 | 0.351
NCI-H2228 | 0.29 | 0.332 | 0.121 | 0.481 | 0.738 | 0.489 | 0.729 | 0.527 | 0.445 | 0.238 | 0.123 | 0.142 | 0.116 | 0.0834 | 0.352 | 0.359 | 0.333 | 0.392 | 0.346
NCI-H2347 | 0.431 | 0.38 | 0.406 | 0.607 | 0.611 | 0.627 | 0.642 | 0.525 | – | 1.15 | 0.521 | 0.245 | 0.264 | 0.45 | 0.458 | 0.418 | 0.434 | 0.479 | 0.405
HCC-15 | 0.245 | 0.204 | 0.182 | 0.663 | 0.727 | 0.662 | 0.837 | 0.686 | 1.09 | 0.951 | 0.453 | 0.241 | 0.271 | 0.232 | 0.212 | 0.244 | 0.226 | 0.217 | 0.198
NCI-H23 | 0.719 | 0.556 | 0.395 | – | 0.33 | 0.276 | 0.303 | 0.282 | 1.03 | 0.769 | 0.356 | 0.225 | 0.21 | 0.204 | 0.757 | 0.744 | 0.604 | 0.755 | 0.514
LC-2-ad | 0.241 | 0.269 | 0.232 | 0.699 | 0.701 | 0.762 | 0.729 | 0.673 | 0.936 | 0.864 | 0.403 | 1.01 | 0.918 | 0.465 | 0.247 | 0.271 | 0.284 | 0.26 | 0.284
LCLC-97TM1 | 0.184 | 0.144 | 0.114 | 0.289 | 0.362 | 0.354 | 0.592 | 0.362 | 0.933 | 0.897 | 0.278 | 0.706 | – | 0.128 | 0.166 | 0.172 | 0.183 | 0.157 | 0.135
